The results in this text go back to publication doi:10.1101/2025.02.26.640323, “Aggregation-Dependent Epitope Sequence and Modification Fingerprints of Anti-Aβ Antibodies” (bioRxiv, 2025).

“Also recorded” adds a separate entry of the source.

One data set concerns Aβ(−10–18). Description: Deep mutational scans of 18-meric Aβ peptides on microarray. In kind it is binding, human.
Data set [1] has as its system PTM-carrying Aβ peptides (PTM-Aβ). The data set is described as follows: PTM-Aβ microarray, general. It counts as binding, human. The following applies: general statement. The text has this:
(§1) Specific PTMs might be associated with different stages of AD progression and severity, offering potential biomarkers for diagnosis and prognosis. Targeting PTMs represents a potential therapeutic strategy to prevent Aβ aggregation and neurotoxicity, thereby slowing disease progression. […] Therefore, a selected group of PTM-carrying Aβ peptides (PTM-Aβ) were incorporated into the Aβ chip to explore the potential binding preference of selected Aβ-Abs, under optimized concentrations (Figure 3). The antibodies were tested with both PTM-Aβ and the corresponding unmodified variants to provide a head-to-head comparison. This screening was performed in the presence of Aβ phosphorylated at positions Ser(8) or Ser(26), N-terminal pE at position 3, racemization/isomerization of Asp at position 1, and unmodified N-terminal variants. The dataset is divided into sections (Figure 3 a–f) for enhanced visualization, where each antibody was screened simultaneously against all peptides to locate their epitope preferences. […] A set of antibodies without reported PTM preference was applied here as controls (refer to Table 1), namely 11H3, 101–1-1, IC16, 82E1 and 3D6.
(§2) Figure 3. […] Blue and red shades indicate the binding strength over the related arrayed […] modified peptide shown on top and cognate anti-Aβ antibody to the left. […]

In another data set the test system is AβpE3-x. The data set is described as follows: PTM-Aβ microarray, pE3. The following applies: Donanemabbs 0,0012μg/mL, 2–48, Aβ-pE3, IC16 […], vs Aβ3-x with non-cyclized Glu. It counts as binding, human.
Excerpt: as §1, §2

In data set [2] the test system is mixture of ten synthetic Aβ peptides. Description: IP-MS from mixture of ten synthetic Aβ peptides. The following applies: TOPAC matrix, 10ng/mL each peptide. It counts as binding.
Data set [3] concerns Aβ1–42 monomer, oligomer and fibril preparations; AβpE3–40. Description: Bistris-SDS gradient PAGE/Western blot. In kind it is binding. The following applies: 4–12% Bistris SDS-PAGE. The procedure:
No SPR-487B) (StressMarq biosciences, Victoria, BC, Canada). The samples for electrophoresis were prepared (starting from stock solutions) with final concentrations of 0.1 μg/μL) in LDS sample buffer (247.5 mM Tris-HCl, pH 8.5, 2% (w/v) lithium dodecyl sulfate (LDS), 10% (v/v) glycerol, 0.5 mM EDTA, 0.22 mM Brilliant Blue G250, 0.175 mM Phenol Red) and denatured by heating at 70°C for 10 min. […] The prechilled transfer buffer contained 25 mM Tris, 192 mM glycine, 20% (v/v) methanol and 0.0375 % Tween-20. After blotting, the membrane was washed for 10 min at room temperature in Tris-buffered saline (TBS) followed by blocking for 30 min with 5% powdered milk in TBS containing 0.1% Tween-20 (TBS-T). The blots were then incubated with primary antibodies in 5% milk in TBS-T over night at 4°C and washed 3 × for 10 min with TBS-T at room temperature. […] After 1 h incubation with the secondary antibodies, the blots were washed 3 × for 10 min with TBS-T and incubated for 5 min with ECL-Prime Western Blotting Detection Reagent (Cytiva Amersham, Little Chalfont, England). Images were recorded on a Vilber-Loumart Fusion SL blot imager. […] That way, the 4G8 reprobing signals were essentially added on top of the initial signals and background artifacts.
In general terms: Immunoblotting shows a protein as a band on a membrane.

Data set [4] has as its system synthetic Aβ peptide variants. Description: Capillary isoelectric focusing (CIEF) immunoassay. It counts as binding. The protocol:
Automated capillary isoelectric focusing immunoassays were performed with a Peggy-Sue system (ProteinSimple,San Jose, California, USA), essentially as previously described and [53].
In brief, synthetic Aβ peptide variants were separated by isoelectric focusing in microcapillaries followed by photochemical immobilization to the inner capillary walls and probing with the primary antibodies for 120 min. After 2 washes, the horseradish peroxidase conjugated secondary antibodies were loaded and incubated for 60 min. After two washing steps, a luminol/peroxide mix was loaded, and chemiluminescent signals were recorded. The data was analyzed with the Compass for SW software. The following secondary antibodies were used: Anti-human IgG Secondary HRP antibody (Protein Simple, catalog number 043–491), Goat-Anti-Mouse-HRP Secondary Antibody ProteinSimple, catalog number 040–655) and Peroxidase-conjugated Affini Pure Donkey Anti-Human IgG (H+L) (1:100 dilution) (Jackson ImmunoResearch Laboratories Inc., West Grove, PA, code number 709–035-149).

In data set [5] the test system is Aβ vascular and parenchymal deposits in AD brain sections. The data set is described as follows: Immunohistochemistry on AD brain tissue with antibody pre-adsorption. Set-up: species or system human. Particulars: 1 μg Donanemabbs with 2.5 μg peptide; human AD brain. The procedure: Immunohistochemistry was performed on 4-μm paraffin sections. In brief, brain sections were deparaffinized in Roticlear (Carl Roth, Karlsruhe, Germany) and rehydrated in a descending series of ethanol. Activity of endogenous peroxidases was blocked by incubation in 0.3% H2O2 in PBS for 30 min. […] Antibodies and peptides were incubated on a rotator for 3 h at room temperature and reaction tubes were centrifuged at 13000 rpm for 5 min at the end of the incubation period. Control conditions included antibodies in 0.01 M PBS including 10% FCS without synthetic peptides. Adjacent paraffin-embedded sections from a human AD case were incubated overnight with the supernatants and sections were washed with 0.01 M PBS including 0.1 % Tergitol. For detection, biotinylated anti-human antibodies (6 μg/ml, Jackson ImmunoResearch, West Grove, Pennsylvania, USA #109-065-003) were used and staining was visualized with the ABC method with a Vectastain kit (Vector Laboratories, Newark, California, USA), diaminobenzidine as a chromogen and counterstaining with hematoxylin.

Take “Donanemabbs: humanized monoclonal, biosimilar of Donanemab, Proteogenix (#PX-TA1549)”: the “core motif / main contacts / epitope” value in the data set on Aβ(−10–18) (18-mer deep mutational scan, core position if >50% of exchanges reduce binding by >50%) is given as “EFRHDSGY”. Moreover, in the data set on Aβ(−10–18) (Aβ1–18 deep mutational scan), the “residue conservation at Asp(1) and Ala(2)” value is “Asp(1) and Ala(2) were not highly conserved”. In addition, the “preference for PTMs” value in data set [1] is “exhibited the previously reported preferences for PTMs”. Moreover, in the data set on AβpE3-x, the “selectivity for / binding to AβpE3-x” value was “high selectivity for Aβ peptides starting with an N-terminal pE”. Besides, the “IP-MS signal of AβpE3–40” value in data set [2] is reported as “highly preferential binding”. Also, in data set [3], the “detection of AβpE3–40, Bistris Western blot” value is listed as “detected multiple AβpE3–40 bands in the low Mwrange”; the “detection of HFIP-treated monomeric, oligomeric and fibrillar Aβ1–42” value is “very faint signals”. Also, the “signals with other N-terminal Aβ variants (CIEF and Bicine-Tris Western blot)” value in data set [4] was “no or very small signals”. Moreover, the “preference of Aβ variant (CIEF and Bicine-Tris Western blot)” value in data set [4] (AβpE3–40 vs Aβ3–40) was “clear preference for the Aβ variant starting with the cyclized N-terminal pE; also recorded: high preference for pyroglutamate bearing pEAβ3–40”. The “Aβ variants detected on CIEF-immunoassay” value in data set [4] (Peggy Sue, chemiluminescence) was “detected AβpE3–40 and Aβ3–40”. For the same substance, in data set [5], the “IHC immunoreactivity after pre-adsorption with Aβ1–40” value is “not suppressed”, the “IHC immunoreactivity after pre-adsorption with Aβ3–40” value is reported as “not suppressed” and the “IHC immunoreactivity after pre-adsorption with AβpE3–40” value is given as “efficiently suppressed; also recorded: effectively attenuated”.
